This is an account of results in a melting point compilation (Tetko et al.; mined from patent text by program, amines drawn as free bases though some values may be those of a salt).

What is called melting point is the temperature, or range, at which the solid turns liquid.

For `NC(=O)C(Nc1ccccc1C1CC1)c1c(Cl)cccc1Cl` (stereo not given), the melting point was found to be 196 °C.
For `COC(=O)c1c2c(c3cc4c(cc3c1-c1ccc(OC)c(OC)c1)OCO4)OCOC2=O`, the melting point lay within 168 to 170 °C.
In turn, `CN1C(=O)Cn2cnnc2-c2cc(Cl)ccc21` came in with a melting point of 272 to 274 °C.
With `CN(C)C1CCCCCCCCCCC1N(C)C(=O)c1ccc(C(F)(F)F)cc1` (stereo not given), the melting point lay within 69 to 70 °C.
In the case of `O=C(SCC1C(=O)OCC1c1ccccc1)c1ccccc1F` (stereo not given), the melting point lay in the range of 92 to 94 °C.
The molecule `COc1nc2ncnc(NCc3ccco3)c2[nH]1` registered a melting point of 196 to 198 °C.
`Cn1ccnc1Sc1ccc(Nc2c(C#N)cnc3cc(-c4csc(CN5CCOCC5)c4)ccc23)cc1Cl` returned a melting point of 110 to 113 °C.
Consider `Cc1cccc2c(-c3ccc(Cl)cc3)onc12`, for which the melting point lay within 134 to 136 °C.
For the molecule `CN(CCCc1c(N)nc(N)[nH]c1=O)c1ccc(C(=O)N[C@@H](CCC(=O)O)C(=O)O)cc1`, the melting point lay within 190 to 200 °C.
In the case of `Cc1cc([N+](=O)[O-])cc(C)c1-c1ccc(-c2c(C)cc([N+](=O)[O-])cc2C)o1`, the melting point fell in the range of 156 to 158 °C.
In the case of `O=C1CCc2c(Oc3ccc([N+](=O)[O-])cn3)cccc21`, the melting point was in the range of 119 to 123 °C.
In turn, `O=C(O)c1ccc(CCCBr)cc1` registered a melting point of 120 °C.
For the molecule `Clc1cc(CCc2ccccn2)c2oc(-c3cnccn3)nc2c1`, the melting point was in the range of 160 to 161 °C.
Turning to `CC(C)NC(=O)OCC(=O)c1ccc(Oc2ccccc2)cc1`, the melting point lay within 89 to 90 °C.
The result for `CC(C)OC(=O)N1CCC(NC(=O)N2CCn3c(c(C(N)=O)c(C#N)c3-c3ccccc3)C2)CC1` reads 172 to 174 °C.
Molecule `CCn1c(-c2ccc(-n3ccnc3)cc2)cnc1[C@H](Cc1ccccn1)N(C=O)c1cc2cc(C(F)(F)F)ccc2o1` registered a melting point of 85 to 89 °C.
As for `CC(=O)C1=C(C)NC(C)=C(C(=O)CCCCCCCN2CCC(c3ccccc3)(c3ccccc3)CC2)C1c1cccc([N+](=O)[O-])c1` (stereo not given), the melting point lay in the range of 141 to 145 °C.
Molecule `CC(C)OC(=O)NS(=O)(=O)Cl` gave a melting point of 66 °C.
Molecule `CCCCN(CCCC)C(=O)NCCc1ccc(-c2csc(NC(=O)OC(C)(C)C)n2)cc1` displayed a melting point of 70 to 75 °C.
`O=C=NC(=O)SCc1ccccc1` displayed a melting point of 140 to 145 °C.
Consider `Cc1nc(NC(=O)Nc2ccccc2)n(C)c(=O)c1CCN1CCN(c2noc3ccccc23)CC1`, for which the melting point amounted to 216 °C.
In turn, `Cc1c(C(=O)Nc2ccc(N3CCC(N4CCOCC4)CC3)c(C#N)c2)cnn1Cc1ccccc1` yielded a melting point of 155 °C.
Molecule `CC(=O)OC1=C(c2nnn(Cc3ccccc3)n2)N(C)S(=O)(=O)c2ccccc21` came in with a melting point of 173 °C.
In the case of `NC(=O)c1ncn2c1NCC=C2c1cccc(C(F)(F)F)c1`, the melting point lay within 192 to 194 °C.
`CC(C)N1C(=O)c2cnc(-c3ccccc3)nc2N(C(=O)CN2CCCCC2)c2ccccc21` had a melting point of 152 to 154 °C.
In turn, `COc1cc(N)c(Cl)cc1C(=O)NCC1CCCN1C1CCCCC1` (stereo not given) returned a melting point of 123 to 124 °C.
Turning to `Cc1cc(-c2ccc(C(F)(F)F)cc2)nc(-c2cccc(-c3cccc(S(=O)(=O)NC(C)(C)C)c3)n2)n1`, the melting point was above 250 °C.
The molecule `O=C(O)COc1ccc(-c2cc(O)c(SCCc3ccccc3)c(=O)o2)cc1` returned a melting point of 182 to 183 °C.
`O=c1cc2c(n[nH]1)-c1ccc(O)cc1CC2` showed a melting point of 300 °C.
Consider `O=C1N(CC2CCCO2)c2ccccc2C12COc1cc3c(cc12)OCCCO3` (stereo not given), for which the melting point was in the range of 134 to 138 °C.
In the case of `O=C(Nc1cccc(C(F)(F)F)c1)c1ccccc1C(c1ccc(O)cc1)c1ccc(O)cc1`, the melting point fell in the range of 198 to 200 °C.
`COc1cc(OCc2ccccn2)ccc1/C=C/c1cc(/C=C/c2ccc3c(c2)OCCO3)n[nH]1`: the melting point lay in the range of 153 to 155 °C.
In the case of `CN(C)c1n[nH]c(-c2ccc(F)cc2)c1-c1ccncc1`, the melting point was 245 to 247 °C.
Molecule `CC1(C)OC(=O)Nc2ccc(-c3cc(Cl)cc(Cl)c3)cc21` showed a melting point of 245 to 246 °C.
Turning to `O=C(CNC(=O)OCc1ccccc1)Nn1cccc1C(=O)c1ccccc1`, the melting point is 96 to 98 °C.
`COc1ccc(Cc2c[nH]c(=O)c3ccccc23)cn1` registered a melting point of 191 °C.
For the molecule `CC(=O)NCCC(=O)Nc1cccc(-c2cc(-c3ccc(Cl)cc3O)nc(NC(=O)c3cccs3)c2C#N)c1`, the melting point lay in the range of 209 to 210 °C.
With `NC(=O)/C=C/c1cc2c(Oc3ccc(Cl)cc3)cncc2s1` the figure was 176 to 178 °C.
As for `O=C1C=C(Nc2ccccc2)C(=O)c2nccnc21`, the melting point is 203 to 205 °C.
`CCCC(C)(Cl)Cn1ncc(OCc2ccc(CC)cc2)c(Cl)c1=O` (stereo not given) gave a melting point of 81 to 83 °C.
`CC(C)(COC(=O)COc1ccc(C(=O)CN2Cc3cc(C#N)ccc3C2=O)cc1)NS(=O)(=O)c1cccnc1` registered a melting point of 190 to 192 °C.
In turn, `Cc1oc(-c2ccccc2)nc1COc1ccc2cc(CCCCC#N)oc2c1` displayed a melting point of 87 to 88 °C.
On to `CC(=O)OI(OC(C)=O)c1ccc(-c2ccc(Cl)cc2)cc1`, for which the melting point is 147 to 150 °C.
In the case of `CC(C)Sc1cn(C)cc(-c2ccc(Cl)c(C(F)(F)F)c2)c1=O`, the melting point lay within 127 to 129 °C.
`CC(=O)Nc1ccc(/C=C/c2cc(/C=C/c3ccc4cc[nH]c4c3)[nH]n2)cc1`: the melting point was above 300 °C.
The result for `Cc1ccc2c(c1)c1c(OCC#N)cccc1n2Cc1ccccc1` reads 188 °C; that for `CN1C(=O)CN=C(c2ccccc2F)c2c1ccc(N)c2Cl`, 126 °C.
The molecule `CCSCCC(=O)NNC(=O)N1Cc2ccccc2Oc2ccc(Cl)cc21` displayed a melting point of 126 to 129 °C.
`Oc1ccc2c(ccc3ccccc32)c1` gave a melting point of 165 to 167 °C.
Molecule `Cc1c2c(c(C)c3c1OC(C)(CI)C3)N(C=O)C(C)(C)C2` (stereo not given) yielded a melting point of 124 to 126 °C.
As for `C#CCOc1cc(-n2c(=S)n3n(c2=S)COCC3)c(F)cc1Cl`, the melting point was in the range of 167 to 169 °C.
In turn, `Cc1cccc(C(O)(c2cccc(C)c2)c2cccc(-c3ccc4ccccc4c3)c2)c1` showed a melting point of 58 to 60 °C.
With `Oc1ccc(N2CCN(c3nc4ccccc4o3)CC2)cc1`, the melting point lay in the range of 161 to 163 °C.
For the molecule `O=Cc1cccnc1Oc1ccc(Cl)c(Cl)c1`, the melting point was 97 to 99 °C.
Turning to `Cc1csc(C)c1N(N)C(=O)CN`, the melting point fell in the range of 68 to 70 °C.
With `CC(C)(C)NCC(O)COc1ccccc1-c1csnn1` (stereo not given) the figure was 99 to 100 °C.
For the molecule `O=S(=O)(CCl)Nc1ccnn1-c1c(Cl)cc(C(F)(F)F)cc1Cl`, the melting point fell in the range of 63 to 66 °C.
`OCc1ccc(-c2nn(Cc3ccccc3)c3ncccc23)o1` displayed a melting point of 104 °C.
`CC(=O)NC1Cc2cn(S(=O)(=O)c3c(C(C)C)cc(C(C)C)cc3C(C)C)c3cccc(c23)C1=O` (stereo not given): the melting point lay in the range of 159 to 162 °C.
For the molecule `COc1cc(C)c(O)c(CCCCCCCCCCO)n1`, the melting point lay within 80 to 81 °C.
In turn, `O=C(Nc1cccc(S(=O)(=O)NCC(F)(F)F)c1)c1cnn2c(C(F)F)cc(-c3ccc(C(F)(F)F)cc3)nc12` yielded a melting point of 257 °C.
With `COc1ccc(Cl)cc1S(=O)(=O)N1C2CCC1CN(CC(=O)Nc1ccccc1C)C2`, the melting point lay in the range of 180 to 181 °C.
On to `CC1(C)CCCN(C(=O)CN(C(=O)CNC(=O)Nc2cccc(CCO)c2)c2ccccc2)C1`, for which the melting point came to 175 °C.
With `CCOC(=O)c1c(CBr)nc2cc(OC)c(OC)cc2c1-c1ccc(OC)c(OC)c1` the figure was 135 to 136 °C; with `CC(CN1CCC(NC(=O)C2CC2)CC1)c1ccc(C(=O)c2ccccc2)cc1` (stereo not given), 159 to 160 °C; with `CC(C)=CCc1c(O)cc(O)cc1-c1cc2ccc(O)cc2o1`, 82 to 83 °C.
In turn, `Cc1nccn1-c1nc(-c2ccc(Cl)cc2)c(CCCN2C(=O)CN(C)C2=O)o1` displayed a melting point of 105 to 106 °C.
The result for `Cc1c(C)c(N2C(=O)c3ccccc3C2=O)c(C)c2c1OC(C)(C)C2c1ccc(C(C)C)cc1` (stereo not given) reads 180 to 181 °C; that for `Clc1cc(-c2c(-c3ccccc3)nn3ccccc23)ccn1`, 167 to 168 °C.
Take `COc1ccc(C=O)cc1-c1nsc2ccc(-n3c(=O)cc(C(F)(F)F)n(C)c3=O)cc12`: the melting point was 118 to 120 °C.
`Cc1cc(C(=O)O)ccc1C1=CCC2CC1C2(C)C` (stereo not given) displayed a melting point of 139 to 140 °C.
`CCOC(=O)c1c(Oc2ccc(Cl)cc2[N+](=O)[O-])c2ccccc2n1C` displayed a melting point of 133 to 134 °C.
As to `CCOC(=O)c1cnn2c1c(SC)nc1c(C)nn(C)c12`, the melting point lay within 86 to 87 °C.
Molecule `CCc1nc2c(cnn2CC)c(NC2CCOCC2)c1CNC(=O)c1cccc(C(=O)NCc2cc(Cl)cc(-c3cccc(CN4CC5CC4CN5)c3)c2)c1` (stereo not given) registered a melting point of 130 to 133 °C.
Consider `c1ccc(CCN2Cc3sccc3C(c3ccccc3)C2)cc1` (stereo not given), for which the melting point amounted to 110 °C.
For `CC1(C)CCC(C)(C)c2cc(CCCO)c(/C=C/c3ccc(C(=O)O)cc3)cc21`, the melting point came out at 213 °C.
Molecule `CCc1ccc(-c2ccc3c(c2)C=C(C(=O)O)CCS3(=O)=O)cc1` registered a melting point of 260 to 265 °C.
For `CC(C)(C)OC(=O)NCCOC(=O)COc1ccc(CCCCNC(N)=NC(=O)c2nc(Cl)c(N)nc2N)cc1`, the melting point is 80 to 82 °C.
The molecule `O=C(c1ccc(F)cc1)c1ccc2[nH]c(=O)nc(-c3cccc(Cl)c3)c2c1` returned a melting point of 226 °C.
Turning to `O=[N+]([O-])c1ccc(C=Cc2ccc(Cl)c(Cl)c2)cc1O`, the melting point lay within 105 to 106 °C.
With `CNC(=O)C(=N[C@@H](C)c1ccccc1)C(C)(C)C`, the melting point is 120 °C.
`COC1(NC(=O)NS(=O)(=O)c2cccc(N=C=O)c2)C=C(C)N=CN1` (stereo not given) returned a melting point of 147 to 157 °C.
With `Cc1nc2cc(NC(=O)c3cc4cccnc4n3-c3ccncc3)ccc2s1` the figure was 236 to 238 °C; with `O=C1N[C@H](C(=O)NCCCCO)CS1`, 81 to 83 °C; with `COc1ccc(CNc2nc(Cl)nc(Cl)c2C(=O)O)cc1Cl`, 150 to 151 °C.
